Target: T1, FXR (Homo sapiens, UniProt Q96RI1)
T1 construct: 5 μL of 20 nM FXR-LBD Complete Coregulator buffer G; purchased ThermoFisher PV4833
T1 sequence (Q96RI1 262-486 limits assumed): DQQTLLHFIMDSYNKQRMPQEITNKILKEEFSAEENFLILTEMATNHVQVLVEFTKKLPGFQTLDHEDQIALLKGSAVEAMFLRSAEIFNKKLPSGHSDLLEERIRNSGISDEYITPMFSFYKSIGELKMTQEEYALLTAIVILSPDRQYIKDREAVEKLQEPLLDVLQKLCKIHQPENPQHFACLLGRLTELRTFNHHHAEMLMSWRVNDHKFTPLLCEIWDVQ
Assay: FXR antagonist screening by TR-FRET (LanthaScreen TR-FRET FXR co-activation assay kit)
Assay type: biochemical
Settings: Table 1.2, FXR antagonistic activity; TR-FRET with CDCA; geometric means of at least two independent runs
Summary of the method: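 FXR-LBD (20 nM working solution) mixed with compound, CDCA (200 μM working solution) as agonist, Fluorescein-SRC2-2 and Tb-anti-GST antibody in Coregulator buffer G; 10 h at room temperature. Coactivator recruitment read by TR-FRET, triplicate wells.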

**Q.** `CCOC(=O)c1oc2ccc(S(=O)(=O)N(CCc3ccccc3)c3ccccc3N3CCN(C(=O)c4ccc(F)cc4)CC3)cc2c1C` [Example M10-112, Ethyl 5-(N-(2-(4-(4-fluorobenzoyl)piperazin-1-yl)phenyl)-N-phenethylsulfamoyl)-3-methylbenzofuran-2-carboxylate] was tested. Which IC50 did it give?
**A.** 50 to 100 µM

**Q.** `CCOC(=O)c1oc2ccc(S(=O)(=O)N(CCc3ccccc3)c3ccccc3N3CCN(C(=O)c4ccc(NC(=O)OC(C)(C)C)cc4)CC3)cc2c1C` [Example M10-113, Ethyl-(N-(2-(4-(4-((tert-butoxycarbonyl)amino)benzoyl)piperazin-1-yl)phenyl)-N-phenethylsulfamoyl)-3-methylbenzofuran-2-carboxylate] was tested. Which IC50 did it give?
**A.** 50 to 100 µM

**Q.** How did the IC50 turn out when `CCOC(=O)c1oc2ccc(S(=O)(=O)N(CCc3ccccc3)c3ccccc3N3CCN(C(=O)c4ccc([N+](=O)[O-])cc4)CC3)cc2c1C` [Example M10-114, Ethyl 3-methyl-5-(N-(2-(4-(4-nitrobenzoyl)piperazin-1-yl)phenyl)-N-phenethylsulfamoyl)benzofuran-2-carboxylate] was run?
**A.** 50 to 100 µM

**Q.** How did the IC50 turn out when `CCOC(=O)c1oc2ccc(S(=O)(=O)N(CCc3ccccc3)c3ccccc3N3CCN(C(=O)c4ccc(C(C)=O)cc4)CC3)cc2c1C` [Example M10-115, Ethyl 5-(N-(2-(4-(4-acetylbenzoyl)piperazin-1-yl)phenyl)-N-phenethylsulfamoyl)-3-methylbenzofuran-2-carboxylate] was run?
**A.** 50 to 100 µM

**Q.** For `CCOC(=O)c1oc2ccc(S(=O)(=O)N(CCc3ccccc3)c3ccccc3N3CCN(C(=O)c4cccnc4)CC3)cc2c1C` [Example M10-116, Ethyl 3-methyl-5-(N-(2-(4-nicotinoylpiperazin-1-yl)phenyl)-N-phenethylsulfamoyl)benzofuran-2-carboxylate], which IC50 is on record?
**A.** 50 to 100 µM

**Q.** Which IC50 does the source give for `CCOC(=O)c1oc2ccc(S(=O)(=O)N(CCc3ccccc3)c3ccccc3N3CCN(C(=O)c4ccccn4)CC3)cc2c1C` [Example M10-117, ethyl 3-methyl-5-(N-phenethyl-N-(2-(4-pyridineformylpiperazin-1-yl)phenyl)sulfamoyl)benzofuran-2-carboxylate] here?
**A.** 50 to 100 µM

**Q.** How did the IC50 turn out when `CCOC(=O)c1oc2ccc(S(=O)(=O)N(CCc3ccccc3)c3ccccc3N3CCN(C(=O)c4cccs4)CC3)cc2c1C` [Example M10-118, Ethyl 3-methyl-5-(N-phenethyl-N-(2-(4-(thiophene-2-carbonyl)piperazin-1-yl)phenyl)sulfamoyl)benzofuran-2-carboxylate] was run?
**A.** 50 to 100 µM

**Q.** Which IC50 does the source give for `CCOC(=O)c1oc2ccc(S(=O)(=O)N(CCc3ccccc3)c3ccccc3N3CCN(C(=O)c4ccsc4)CC3)cc2c1C` [Example M10-119, Ethyl 3-methyl-5-(N-phenethyl-N-(2-(4-(thiophene-3-carbonyl)piperazin-1-yl)phenyl)sulfamoyl)benzofuran-2-carboxylate] here?
**A.** 50 to 100 µM

**Q.** With `C/C=C/C(=O)N1CCN(c2ccccc2N(CCc2ccccc2)S(=O)(=O)c2ccc3oc(C(=O)OCC)c(C)c3c2)CC1` [Example M10-120, (E)ethyl-5-(N-(2-(4-(but-2-enoyl)piperazin-1-yl)phenyl)-N-phenethylsulfamoyl)-3-methylbenzofuran-2-carboxylate] as the compound, how does the IC50 read?
**A.** 50 to 100 µM

**Q.** How did the IC50 turn out when `CCOC(=O)c1oc2ccc(S(=O)(=O)N(CCc3ccccc3)c3ccccc3N3CCN(C(=O)c4ccco4)CC3)cc2c1C` [Example M10-121, Ethyl 5-(N-(2-(4-(furan-2-carbonyl)piperazin-1-yl)phenyl)-N-phenethylsulfamoyl)-3-methylbenzofuran-2-carboxylate] was run?
**A.** 50 to 100 µM

**Q.** For `CCOC(=O)c1oc2ccc(S(=O)(=O)N(CCc3ccccc3)c3ccccc3N3CCN(C(=O)C4CCCC4)CC3)cc2c1C` [Example M10-122, Ethyl 5-(N-(2-(4-(cyclopentanecarbonyl)piperazin-1-yl)phenyl)-N-phenethylsulfamoyl)-3-methylbenzofuran-2-carboxylate], which IC50 is on record?
**A.** 50 to 100 µM

**Q.** With `CCOC(=O)c1oc2ccc(S(=O)(=O)N(CCc3ccccc3)c3ccccc3N3CCN(C(=O)c4ccc(Br)s4)CC3)cc2c1C` [Example M10-123, Ethyl 5-(N-(2-(4-(5-bromothiophene-2-carbonyl)piperazin-1-yl)phenyl)-N-phenethylsulfamoyl)-3-methylbenzofuran-2-carboxylate] as the compound, how does the IC50 read?
**A.** 50 to 100 µM

**Q.** With `CCOC(=O)c1oc2ccc(S(=O)(=O)N(CCc3ccccc3)c3ccccc3N3CCN(C(=O)c4ccc[nH]4)CC3)cc2c1C` [Example M10-124, Ethyl 5-(N-(2-(4-(1H-pyrrole-2-carbonyl)piperazin-1-yl)phenyl)-N-phenethylsulfamoyl)-3-methylbenzofuran-2-carboxylate] as the compound, how does the IC50 read?
**A.** 50 to 100 µM

**Q.** `CCOC(=O)c1oc2ccc(S(=O)(=O)N(CCc3ccccc3)c3ccccc3N3CCN(C(=O)c4sccc4Br)CC3)cc2c1C` [Example M10-125, ethyl 5-(N-(2-(4-(3-bromothiophene-2-carbonyl)piperazin-1-yl)phenyl)-N-phenethylsulfamoyl)-3-methylbenzofuran-2-carboxylate] was tested. Which IC50 did it give?
**A.** 50 to 100 µM

**Q.** How did the IC50 turn out when `CCOC(=O)c1oc2ccc(S(=O)(=O)N(CCc3ccccc3)c3ccccc3N3CCN(C(=O)c4sccc4Cl)CC3)cc2c1C` [Example M10-126, Ethyl 5-(N-(2-(4-(3-chlorothiophene-2-carbonyl)piperazin-1-yl)phenyl)-N-phenethylsulfamoyl)-3-methylbenzofuran-2-carboxylate] was run?
**A.** 50 to 100 µM

**Q.** With `CCOC(=O)c1oc2ccc(S(=O)(=O)N(CCc3ccccc3)c3ccccc3N3CCN(C(=O)c4cc(Br)cs4)CC3)cc2c1C` [Example M10-127, Ethyl 5-(N-(2-(4-(4-bromothiophene-2-carbonyl)piperazin-1-yl)phenyl)-N-phenethylsulfamoyl)-3-methylbenzofuran-2-carboxylate] as the compound, how does the IC50 read?
**A.** 50 to 100 µM

**Q.** `CCOC(=O)c1oc2ccc(S(=O)(=O)N(CCc3ccccc3)c3ccccc3N3CCN(C(=O)c4ccc(Cl)s4)CC3)cc2c1C` [Example M10-128, Ethyl 5-(N-(2-(4-(5-chlorothiophene-2-carbonyl)piperazin-1-yl)phenyl)-N-phenethylsulfamoyl)-3-methylbenzofuran-2-carboxylate] was tested. Which IC50 did it give?
**A.** 50 to 100 µM

**Q.** `CCOC(=O)c1oc2ccc(S(=O)(=O)N(CCc3ccccc3)c3ccccc3N3CCN(C(=O)c4cncs4)CC3)cc2c1C` [Example M10-129, Ethyl 3-methyl-5-(N-phenethyl-N-(2-(4-(thiazole-5-carbonyl)piperazin-1-yl)phenyl)sulfamoyl)benzofuran-2-carboxylate] was tested. Which IC50 did it give?
**A.** 50 to 100 µM

**Q.** For `CCOC(=O)c1oc2ccc(S(=O)(=O)N(CCc3ccccc3)c3ccccc3N3CCN(C(=O)c4cc[nH]n4)CC3)cc2c1C` [Example M10-130, Ethyl 5-(N-(2-(4-(1H-pyrazole-3-carbonyl)piperazin-1-yl)phenyl)-N-phenethylsulfamoyl)-3-methylbenzofuran-2-carboxylate], which IC50 is on record?
**A.** 50 to 100 µM

**Q.** `CCOC(=O)c1oc2ccc(S(=O)(=O)N(CCc3ccccc3)c3ccccc3N3CCN(C(=O)c4cnco4)CC3)cc2c1C` [Example M10-131, Ethyl 3-methyl-5-(N-(2-(4-(oxazole-5-carbonyl)piperazin-1-yl)phenyl)-N-phenethylsulfamoyl)benzofuran-2-carboxylate] was tested. Which IC50 did it give?
**A.** 50 to 100 µM

**Q.** With `CCOC(=O)c1oc2ccc(S(=O)(=O)N(CCc3ccccc3)c3ccccc3N3CCN(C(=O)c4ccc(C)c(C)c4)CC3)cc2c1C` [Example M10-132, Ethyl 5-(N-(2-(4-(3,4-Dimethylbenzoyl)piperazin-1-yl)phenyl)-N-phenethylsulfamoyl) 3-methylbenzofuran-2-carboxylate] as the compound, how does the IC50 read?
**A.** 50 to 100 µM

**Q.** With `CCOC(=O)c1oc2ccc(S(=O)(=O)N(CCc3ccccc3)c3ccccc3N3CCN(C(=O)c4c(OC)cccc4OC)CC3)cc2c1C` [Example M10-133, Ethyl 5-(N-(2-(4-(2,6-Dimethoxybenzoyl)piperazin-1-yl)phenyl)-N-phenethylsulfamoyl)3-methylbenzofuran-2-carboxylate] as the compound, how does the IC50 read?
**A.** 50 to 100 µM

**Q.** For `CCOC(=O)c1oc2ccc(S(=O)(=O)N(CCc3ccccc3)c3ccccc3N3CCN(C(=O)c4ccccc4Cc4ccccc4)CC3)cc2c1C` [Example M10-134, Ethyl 5-(N-(2-(4-(2-benzylbenzoyl)piperazin-1-yl)phenyl)-N-phenethylsulfamoyl)3-methylbenzofuran-2-carboxylate], which IC50 is on record?
**A.** 50 to 100 µM

**Q.** Which IC50 does the source give for `CCOC(=O)c1oc2ccc(S(=O)(=O)N(CCc3ccccc3)c3ccccc3N3CCN(C(=O)c4c(C)cc(C)cc4C)CC3)cc2c1C` [Example M10-135, Ethyl 5-(N-(2-(4-(2,4,6-trimethylbenzoyl)piperazin-1-yl)phenyl)-N-phenethylsulfamoyl)3-methylbenzofuran-2-carboxylate] here?
**A.** 50 to 100 µM

**Q.** `CCOC(=O)c1oc2ccc(S(=O)(=O)N(CCc3ccccc3)c3ccccc3N3CCN(C(=O)c4ccccc4OC)CC3)cc2c1C` [Example M10-136, Ethyl 5-(N-(2-(4-(2-methoxybenzoyl)piperazin-1-yl)phenyl)-N-phenethylsulfamoyl)3-methylbenzo furan-2-carboxylate] was tested. Which IC50 did it give?
**A.** 50 to 100 µM

**Q.** For `CCOC(=O)c1oc2ccc(S(=O)(=O)N(CCc3ccccc3)c3ccccc3N3CCN(C(=O)c4cc(C)ccc4C)CC3)cc2c1C` [Example M10-137, Ethyl 5-(N-(2-(4-(2,5-Dimethylbenzoyl)piperazin-1-yl)phenyl)-N-phenethylsulfamoyl)3-methylbenzofuran-2-carboxylate], which IC50 is on record?
**A.** 50 to 100 µM

**Q.** For `CCOC(=O)c1oc2ccc(S(=O)(=O)N(CCc3ccccc3)c3ccccc3N3CCN(C(=O)c4ccc(C#Cc5ccccc5)cc4)CC3)cc2c1C` [Example M10-138, Ethyl 5-(N-(2-(4-(4-(phenylethynyl)benzoyl)piperazin-1-yl)phenyl)-N-phenethylsulfamoyl)3-methylbenzofuran-2-carboxylate], which IC50 is on record?
**A.** 50 to 100 µM
